Literature values in patent US10166183B2, “Pharmaceutical formulations” (AUSPEX PHARMACEUTICALS, INC., priority 2014, dated 2019).

Details: in human plasma; metabolites of orally administered tetrabenazine

Row | half-lives | Compound
1 | 7 h | alpha-dihydrotetrabenazine [α-HTBZ]
2 | 5 h | COc1cc2c(cc1OC)[C@H]1C[C@H](O)[C@H](CC(C)C)CN1CC2 [β-HTBZ, beta-dihydrotetrabenazine]
